# Source: patent publication US20240115547A1, “PSYCHOTROPIC AGENTS AND USES THEREOF” (LB PHARMACEUTICALS INC., priority 2021, published 2024)
# Columns and labels:
# [1] = tested on: dopamine D2/D3; assay: D2/D3 RO by dynamic 11C raclopride PET after oral LB-102 in healthy volunteers (Example 1); type: in vivo, human
# [2] = Demethylation of LB-102 to amisulpride in preclinical animal models; type: in vivo
# [3] = tested on: Dopamine (e.g., D2/D3); assay: Dopamine RO % by raclopride PET after LB-102, various dosage regimens (Example 3); type: in vivo, human; conditions: group mean
# [4] = 50 mg LB102 oral, 2.5 h after admin
# [5] = 50 mg LB102 oral, 7.5 h after admin
# [6] = 50 mg LB102 oral, 23.5 h after admin
# [7] = 100 mg LB102 oral, 2.5 h after admin
# [8] = 100 mg LB102 oral, 7.5 h after admin
# [9] = 100 mg LB102 oral, 23.5 h after admin
structure (smiles),measurement,setting,value
CCN1CCCC1CNC(=O)c1cc(S(=O)(=O)CC)c(NC)cc1OC (centres unmarked) [LB-102],Caudate % RO,[1]; [4],26%
same,Putamen % RO,[1]; [4],22%
same,Caudate % RO,[1]; [5],43%
same,Putamen % RO,[1]; [5],36%
same,Caudate % RO,[1]; [6],50%
same,Putamen % RO,[1]; [6],39%
same,Caudate % RO,[1]; [7],48%
same,Putamen % RO,[1]; [7],42%
same,Caudate % RO,[1]; [8],77%
same,Putamen % RO,[1]; [8],71%
same,Caudate % RO,[1]; [9],74%
same,Putamen % RO,[1]; [9],67%
same,dopamine D2/D3 RO in caudate/putamen,"[1]; single oral dose of 50 mg, human subjects (FIG. 1A)",about 50%
same,dopamine D2/D3 RO in caudate/putamen,"[1]; single oral dose of 100 mg, human subjects (FIG. 1B)",~75%
same,demethylated to amisulpride,[2],up to 50%
same,Dopamine RO % (Caudate + Putamen),"[3]; 50 mg SS (once a day for 4 days), 8 h after Day 4 administration",72%
same,Dopamine RO % (Caudate + Putamen),"[3]; 75 mg QD, 48 h after LB-102 administration",37%
